We go through five compounds from patent US9150574B2, “Enzyme inhibitor compounds” (Proximagen Limited, priority 2011, dated 2015).

pIC50: −log10 of the molar value. Where only a bound is given, the exact number is not on record here.

The target in the assay is T1, purified recombinantly expressed human SSAO (Homo sapiens, UniProt Q16853).
T1 construct: made in house
T1 sequence (Q16853 29-763 limits assumed): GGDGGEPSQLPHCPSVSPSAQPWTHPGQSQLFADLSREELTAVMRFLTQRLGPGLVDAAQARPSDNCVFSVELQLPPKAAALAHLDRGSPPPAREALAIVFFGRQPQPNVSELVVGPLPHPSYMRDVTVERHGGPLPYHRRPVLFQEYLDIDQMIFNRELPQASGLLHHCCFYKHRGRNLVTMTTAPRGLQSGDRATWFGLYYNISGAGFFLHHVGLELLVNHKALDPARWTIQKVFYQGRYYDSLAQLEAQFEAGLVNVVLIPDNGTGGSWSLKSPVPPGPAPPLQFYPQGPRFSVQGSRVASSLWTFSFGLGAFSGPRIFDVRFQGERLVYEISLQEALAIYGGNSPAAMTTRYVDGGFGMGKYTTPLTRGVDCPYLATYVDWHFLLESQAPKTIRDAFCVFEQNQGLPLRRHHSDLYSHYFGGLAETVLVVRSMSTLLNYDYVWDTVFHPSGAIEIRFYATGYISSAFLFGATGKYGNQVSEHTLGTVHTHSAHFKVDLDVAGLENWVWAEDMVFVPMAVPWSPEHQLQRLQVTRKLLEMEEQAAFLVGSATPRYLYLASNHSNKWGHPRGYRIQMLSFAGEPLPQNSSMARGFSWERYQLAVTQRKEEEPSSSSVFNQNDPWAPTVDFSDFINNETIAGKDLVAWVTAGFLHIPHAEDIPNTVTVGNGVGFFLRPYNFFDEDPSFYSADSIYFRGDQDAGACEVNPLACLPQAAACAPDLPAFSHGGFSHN
The experiment in a line: SSAO enzyme inhibition assay (benzylamine substrate; hydrogen peroxide/HRP-coupled or 14C aldehyde detection). It counts as biochemical. Conditions: human recombinant SSAO, RT, benzylamine as substrate; read-out: SSAO inhibitory activity IC50. The procedure: All primary assays were performed at RT. with purified recombinantly expressed human SSAO. Enzyme was prepared essentially as described in Ohman et al. (Protein Expression and Purification 46 (2006) 321 331). In addition, secondary- and selectivity assays were performed using SSAO prepared from various tissues or purified rat recombinant SSAO. The enzyme activity was assayed with benzylamine as substrate by measuring either benzaldehyde production, using ^14C-labeled substrate, or by utilizing the production of hydrogen peroxide in a horseradish peroxidase (HRP) coupled reaction. Briefly, test compounds were dissolved in dimethyl sulfoxide (DMSO) to a concentration of 10 mM. Dose-response measurements were assayed by either creating 1:10 serial dilutions in DMSO to produce a 7 point curve or by making 1:3 serial dilutions in DMSO to produce 11 point curves. The top concentrations were adjusted depending on the potency of the compounds and subsequent dilution in reaction buffer yielded a final DMSO concentration ≦2%.
In a horseradish peroxidase (HRP) coupled reaction, hydrogen peroxide oxidation of 10-acetyl-3,7-dihydroxyphenoxazine produced resorufin, which is a highly fluorescent compound (Zhout and Panchuk-Voloshina. Analytical Biochemistry 253 (1997) 169-174; Amplex® Red Hydrogen Peroxide/peroxidase Assay kit, Invitrogen A22188). Enzyme and compounds in 50 mM sodium phosphate, pH 7.4 were set to pre-incubate in flat-bottomed microtiter plates for approximately 15 minutes before initiating the reaction by addition of a mixture of HRP, benzylamine and Amplex reagent. Benzylamine concentration was fixed at a concentration corresponding to the Michaelis constant, determined using standard procedures. Fluorescence intensity was then measured at several time points during 1-2 hours, exciting at 544 nm and reading the emission at 590 nm. For the human SSAO assay final concentrations of the reagents in the assay wells were: SSAO enzyme 1 μg/ml, benzylamine 100 μM, Amplex reagent 20 μM, HRP 0.1 U/mL and varying concentrations of test compound. The inhibition was measured as % decrease of the signal compared to a control without inhibitor (only diluted DMSO). The background signal from a sample containing no SSAO enzyme was subtracted from all data points. Data was fitted to a four parameter logistic model and IC50 values were calculated using the GraphPad Prism 4 or XLfit 4 programs.
SSAO activity was assayed using 14C-labeled benzylamine and analysed by measuring radioactive benzaldehyde. In a white 96-well optiplate (Packard), 20 μL of diluted test compound was pre-incubated at RT. with 20 μL SSAO enzyme for approximately 15 minutes with continuous agitation. All dilutions were made with PBS. The reaction was initiated by adding 20 μL of the benzylamine substrate solution containing [7-14C] Benzylamine hydrochloride (CFA589, GE Healthcare). The plate was incubated for 1 hour as above after which the reaction was stopped by acidification (10 μL 1 M HCl). Then 90 μL Micro Scint-E solution (Perkin-Elmer) was added to each well and the plate was continuously mixed for 15 minutes. Phase separation occurred instantly and activity was read in a Topcount scintillation counter (Perkin-Elmer). In the final reaction well, the human recombinant SSAO concentration was 10 μg/ml. In order to optimize sensitivity, the substrate concentration was decreased as compared to the HRP coupled assay in order to get a higher fraction of radioactive product. In the human SSAO assay, benzylamine concentration was 40 μM (0.2 μCi/mL). Data was analysed as above.
Take `Cc1ccc(-n2cc(N3CCOCC3)c3ccncc32)cc1` [Example 26, 4-[1-(4-Methylphenyl)-1H-pyrrolo[2,3-c]pyridin-3-yl]morpholine]: the pIC50 is 6.30 to 7.00.
Take `Oc1cncc2c1c(C1CCNCC1)cn2-c1ccc(Cl)cc1` [Example 27, 1-(4-Chlorophenyl)-3-(piperidin-4-yl)-1H-pyrrolo[2,3-c]pyridin-4-ol]: the pIC50 is above 7.00.
In the case of `CCCCN(C)c1nn(-c2ccc(Cl)cc2)c2cnccc12` [Example 28, N-Butyl-1-(4-chlorophenyl)-N-methyl-1H-pyrazolo[3,4-c]pyridin-3-amine], the pIC50 is 5.60 to 6.30.
With `FCc1ccc(-n2nc(C3CCOCC3)c3ccncc32)cc1` [Example 29, 1-[4-(Fluoromethyl)phenyl]-3-(oxan-4-yl)-1H-pyrazolo[3,4-c]pyridine] the figure was 6.30 to 7.00; with `Clc1ccc(-n2nc(C3CCN(Cc4cccnc4)CC3)c3ccncc32)cc1` [Example 30, 3-({4-[1-(4-Chlorophenyl)-1H-pyrazolo[3,4-c]pyridin-3-yl]piperidin-1-yl}methyl)pyridine], 6.30 to 7.00.
